Here are results for 21 compounds from ChEMBL document CHEMBL4837267, “Development of Potent 3-Br-isoxazoline-Based Antimalarial and Antileishmanial Compounds” (ACS Med Chem Lett, 2021).

For data set [1], the system named is Plasmodium falciparum. The data set is described as follows: Antimalarial activity against chloroquine sensitive Plasmodium falciparum D10 infected in human red blood cells assessed as reduction in parasite growth measured after 72 hrs by parasite lactate dehydrogenase assay. It counts as functional, organism-based. As to conditions: D10, 72 h.
Data set [2] concerns Plasmodium falciparum. In words: Antimalarial activity against chloroquine resistant Plasmodium falciparum W2 infected in human red blood cells assessed as reduction in parasite growth measured after 72 hrs by parasite lactate dehydrogenase assay. The format is functional, organism-based. As to conditions: W2, 72 h.
Data set [3] relates to Leishmania infantum. The data set is described as follows: Antileishmanial activity against Leishmania infantum (MHOM/TN/80/IPTI) promastigotes assessed as reduction in parasite viability measured after 72 hrs by MTT assay. The format is functional, organism-based. The following applies: MHOM/TN/80/IPT.
Data set [4] relates to Leishmania tropica. In words: Antileishmanial activity against Leishmania tropica (MHOM/SY/2012/ISS3130) promastigotes assessed as reduction in parasite viability measured after 72 hrs by MTT assay. The following applies: MHOM/SY/2012/ISS3130, 72 h. It counts as functional, organism-based. (Formazan colour is commonly taken as a measure of viable cells.)
Data set [5] is described as follows: Selectivity index, ratio of IC50 for antileishmanial activity against Leishmania infantum (MHOM/TN/80/IPTI) promastigotes to IC50 for Cytotoxicity against mouse BMDM cells. As to conditions: read-out: Selectivity Index. It counts as toxicity, cell-based.
Data set [6] in a line: Selectivity index, ratio of IC50 for antimalarial activity against chloroquine resistance Plasmodium falciparum W2 infected in human red blood cells to IC50 for Cytotoxicity against mouse BMDM cells. The following applies: read-out: Selectivity Index. The format is toxicity, cell-based.
Data set [7] concerns Plasmodium falciparum. In words: Antimalarial activity against […] late stage (IV-V) Plasmodium falciparum 3D7 gametocytes expressing CBG99 luciferase infected in human red blood cells assessed as reduction in gametocyte viability measured after 72 hrs by luminescence based assay. The format is functional, organism-based. The following applies: 3D7, 72 h.
Another data set concerns BMDM. In words: Cytotoxicity against mouse BMDM cells assessed as reduction in cell viability incubated for 72 hrs by MTT assay. The format is cell-based.
Data set [8] is described as follows: Selectivity index, ratio of IC50 for antileishmanial activity against Leishmania tropica (MHOM/SY/2012/ISS3130) promastigotes to IC50 for Cytotoxicity against mouse BMDM cells. It counts as toxicity, cell-based. As to conditions: read-out: Selectivity Index.
A short description of data set [9]: Selectivity index, ratio of IC50 for antimalarial activity against chloroquine sensitive Plasmodium falciparum D10 infected in human red blood cells to IC50 for cytotoxicity against mouse BMDM cells. It counts as toxicity, cell-based. The following applies: read-out: Selectivity Index.
The test system of data set [10] is Leishmania tropica. The data set is described as follows: Antileishmanial activity against Leishmania tropica (MHOM/SY/2012/ISS3130) promastigotes assessed as reduction in parasite viability at 60 uM measured after 72 hrs by MTT assay. The format is functional, organism-based.
Data set [11] relates to Leishmania infantum. The data set is described as follows: Antileishmanial activity against Leishmania infantum (MHOM/TN/80/IPTI) promastigotes assessed as reduction in parasite viability at 60 uM measured after 72 hrs by MTT assay. It counts as functional, organism-based. As to conditions: MHOM/TN/80/IPT.
The subject of data set [12] is Plasmodium falciparum. In words: Antimalarial activity against chloroquine resistant Plasmodium falciparum W2 infected in human red blood cells assessed as reduction in parasite growth at 60 uM measured after 72 hrs by parasite lactate dehydrogenase assay. The format is functional, organism-based.
Data set [13] has as its system Plasmodium falciparum. The data set is described as follows: Antimalarial activity against chloroquine sensitive Plasmodium falciparum D10 infected in human red blood cells assessed as reduction in parasite growth at 60 uM measured after 72 hrs by parasite lactate dehydrogenase assay. It counts as functional, organism-based.

Molecules are shown by their SMILES. Active and inactive are the calls of the source. The calls are words filed in the database; no cut-off is given here.

As a reminder, the IC50 is the midpoint of a concentration-inhibition curve. `COc1ccc(-c2noc(C3CC(Br)=NO3)n2)cc1` (stereo not given): the half-maximal inhibitory concentration (IC50) was found to be 34.4 µM in the data set on Plasmodium falciparum [1], 42.5 µM with Plasmodium falciparum [2], 12 µM with Leishmania infantum [3] and 14.7 µM with Leishmania tropica [4].

Regarding `CC(C)(C)c1ccc(-c2nnc(C3CC(Br)=NO3)o2)cc1` (stereo not given), the selectivity ratio in [5] was found to be 11; in data set [6], 690; in [8], 5; in data set [9], 1140. Besides, the IC50 amounted to 10.4 µM in the data set with Plasmodium falciparum [7]; 0.035 µM in the data set with Plasmodium falciparum [1]; 0.058 µM with Plasmodium falciparum [2]; 3.5 µM in the data set on Leishmania infantum [3]; 40 µM in the data set with BMDM; 7.5 µM in the data set with Leishmania tropica [4].

Regarding `C[C@@H]1[C@H](O)[C@@H](C)/C=C/C=C/C=C/C=C/C=C/C=C/C=C/[C@H](O[C@@H]2O[C@H](C)[C@@H](O)[C@H](N)[C@@H]2O)C[C@@H]2O[C@](O)(C[C@@H](O)C[C@@H](O)[C@H](O)CC[C@@H](O)C[C@@H](O)CC(=O)O[C@H]1C)C[C@H](O)[C@H]2C(=O)O` [AMPHOTERICIN B], the 50% inhibitory concentration (IC50) with Leishmania infantum [3] came to 0.11 µM.

Take `BrC1=NOC(c2nnc(-c3ccccc3)s2)C1` (stereo not given): the half-inhibitory concentration (IC50) with Plasmodium falciparum [1] turned out to be 22.9 µM; with Plasmodium falciparum [2], 41.3 µM; in the data set with Leishmania infantum [3], 60.3 µM. The inhibition result with Leishmania tropica [10] was “inactive”.

As to `BrC1=NOC(c2nc(-c3ccccc3)cs2)C1` (stereo not given), the IC50 is 45.8 µM in the data set with Plasmodium falciparum [1], 39.7 µM in the data set on Plasmodium falciparum [2], 28.8 µM in the data set on Leishmania infantum [3] and 33.8 µM with Leishmania tropica [4].

As for `BrC1=NOC(c2ncc(-c3ccccc3)o2)C1` (stereo not given), the half-maximal inhibitory concentration (IC50) in the data set with Plasmodium falciparum [1] worked out at 32.2 µM; with Plasmodium falciparum [2], 39.3 µM; with Leishmania tropica [4], 50.7 µM. Besides, the inhibition result in the data set with Leishmania infantum [11] was “inactive”.

With `O=C(O)c1ccc(-c2noc(C3CC(Br)=NO3)n2)s1` (stereo not given), the half-inhibitory concentration (IC50) in the data set with Plasmodium falciparum [1] amounted to 45.9 µM; in the data set on Plasmodium falciparum [2], 40.4 µM. In addition, the inhibition entry with Leishmania infantum [11] and with Leishmania tropica [10] was “inactive” in each case.

Take `Nc1ccc(-c2noc(C3CC(Br)=NO3)n2)cc1` (stereo not given): the half-maximal inhibitory concentration (IC50) in the data set on Plasmodium falciparum [1] stood at 45.7 µM; in the data set with Plasmodium falciparum [2] it was 39.5 µM; in the data set with Leishmania infantum [3] it was 28.8 µM; in the data set on Leishmania tropica [4] it was 33.8 µM.

Regarding `Fc1ccc(-c2noc(C3CC(Br)=NO3)n2)cc1` (stereo not given), the inhibition entry with Plasmodium falciparum [12] and in the data set on Plasmodium falciparum [13] was “inactive” each time. The IC50 with Leishmania infantum [3] was determined as 9 µM; in the data set on Leishmania tropica [4], 10.9 µM.

On to `BrC1=NOC(c2nc(-c3ccccc3)no2)C1` (stereo not given), for which the IC50 in the data set on Plasmodium falciparum [1] is 52.7 µM; with Plasmodium falciparum [2], 64.8 µM; in the data set with Leishmania infantum [3], 17.3 µM; with Leishmania tropica [4] it was 43 µM.

Turning to `N[C@H](c1nc(-c2ccccc2)no1)[C@@H]1CC(Br)=NO1`, the inhibition result in the data set on Plasmodium falciparum [12] and in the data set on Plasmodium falciparum [13] was “inactive” in each case.

On to `CC(C)(C)c1ccc(-c2noc(C3CC(Br)=NO3)n2)cc1` (stereo not given), for which the selectivity ratio in [5] is 129; in [6], 11; in [8] it was 120; in [9], 12. The IC50 in the data set with Plasmodium falciparum [1] was found to be 3.1 µM; in the data set on Plasmodium falciparum [2] it was 3.5 µM; in the data set with Leishmania infantum [3] it was 0.29 µM; in the data set on BMDM, 37.3 µM; with Leishmania tropica [4] it was 0.31 µM.

Turning to `FC(F)(F)c1ccc(-c2noc(C3CC(Br)=NO3)n2)cc1` (stereo not given), the IC50 was determined as 31 µM in the data set on Plasmodium falciparum [1], 34 µM in the data set with Plasmodium falciparum [2], 8.7 µM with Leishmania infantum [3] and 6.9 µM in the data set on Leishmania tropica [4].

As to `Oc1ccc(-c2noc(C3CC(Br)=NO3)n2)cc1` (stereo not given), the half-maximal inhibitory concentration (IC50) with Plasmodium falciparum [1] turned out to be 39 µM; in the data set on Plasmodium falciparum [2], 32.5 µM; in the data set on Leishmania infantum [3], 14.7 µM; in the data set on Leishmania tropica [4] it was 25.6 µM.

`O=C(O)c1ccc(-c2noc(C3CC(Br)=NO3)n2)cc1` (stereo not given): the figures for the IC50 in the data set with Plasmodium falciparum [1] and in the data set with Plasmodium falciparum [2] were 36.9 µM and 45.3 µM, respectively. Besides, the inhibition entry in the data set on Leishmania infantum [11] and with Leishmania tropica [10] was “inactive” each time.

Regarding `BrC1=NOC(c2nc(-c3cccs3)no2)C1` (stereo not given), the half-inhibitory concentration (IC50) in the data set with Plasmodium falciparum [1] turned out to be 52.7 µM; in the data set on Plasmodium falciparum [2], 46 µM; with Leishmania infantum [3], 26.2 µM; in the data set on Leishmania tropica [4], 24.9 µM.

`BrC1=NOC(c2nc(-c3ccccc3)n[nH]2)C1` (stereo not given): the 50% inhibitory concentration (IC50) was found to be 35.3 µM with Plasmodium falciparum [1] and 43 µM in the data set on Plasmodium falciparum [2]. For the same compound, the inhibition result with Leishmania infantum [11] and with Leishmania tropica [10] was “inactive” throughout.

In the case of `BrC1=NOC(c2nnc(-c3ccccc3)o2)C1` (stereo not given), the IC50 amounted to 16.7 µM in the data set on Plasmodium falciparum [1] and 15.1 µM in the data set with Plasmodium falciparum [2]. Besides, the inhibition entry in the data set with Leishmania infantum [11] and in the data set with Leishmania tropica [10] was “inactive” each time.

With `BrC1=NOC(c2nc(-c3ccc4ccccc4c3)no2)C1` (stereo not given), the IC50 in the data set on Plasmodium falciparum [1] was 27.8 µM; in the data set on Plasmodium falciparum [2] it was 27.2 µM; in the data set with Leishmania infantum [3], 10.5 µM; in the data set with Leishmania tropica [4] it was 5.3 µM.

Regarding `BrC1=NOC(c2nc(-c3ccsc3)no2)C1` (stereo not given), the IC50 in the data set with Plasmodium falciparum [1] was determined as 58.3 µM; in the data set on Plasmodium falciparum [2], 48.1 µM; in the data set with Leishmania infantum [3], 27.3 µM; with Leishmania tropica [4] it was 32.6 µM.

Regarding `BrC1=NOC(c2nc(-c3ccc4c(c3)OCCO4)no2)C1` (stereo not given), the IC50 in the data set with Plasmodium falciparum [1] stood at 29.8 µM; in the data set with Plasmodium falciparum [2], 32.7 µM; in the data set on Leishmania infantum [3], 25.6 µM; in the data set on Leishmania tropica [4], 39.4 µM.
